Test results from ChEMBL document CHEMBL1201862, “PubChem BioAssay data set” (2004).
Active and inactive are the calls of the source. Cut-off read from the data, not from the text of the source, for most assays here: actives have a measured IC50 and inactives only a lower limit.

Assays:
[1] = biological target: T1, Tyrosine-protein phosphatase non-receptor type 22 (Homo sapiens, UniProt Q9Y2R2); assay type: functional
T1 sequence (Q9Y2R2 whole entry): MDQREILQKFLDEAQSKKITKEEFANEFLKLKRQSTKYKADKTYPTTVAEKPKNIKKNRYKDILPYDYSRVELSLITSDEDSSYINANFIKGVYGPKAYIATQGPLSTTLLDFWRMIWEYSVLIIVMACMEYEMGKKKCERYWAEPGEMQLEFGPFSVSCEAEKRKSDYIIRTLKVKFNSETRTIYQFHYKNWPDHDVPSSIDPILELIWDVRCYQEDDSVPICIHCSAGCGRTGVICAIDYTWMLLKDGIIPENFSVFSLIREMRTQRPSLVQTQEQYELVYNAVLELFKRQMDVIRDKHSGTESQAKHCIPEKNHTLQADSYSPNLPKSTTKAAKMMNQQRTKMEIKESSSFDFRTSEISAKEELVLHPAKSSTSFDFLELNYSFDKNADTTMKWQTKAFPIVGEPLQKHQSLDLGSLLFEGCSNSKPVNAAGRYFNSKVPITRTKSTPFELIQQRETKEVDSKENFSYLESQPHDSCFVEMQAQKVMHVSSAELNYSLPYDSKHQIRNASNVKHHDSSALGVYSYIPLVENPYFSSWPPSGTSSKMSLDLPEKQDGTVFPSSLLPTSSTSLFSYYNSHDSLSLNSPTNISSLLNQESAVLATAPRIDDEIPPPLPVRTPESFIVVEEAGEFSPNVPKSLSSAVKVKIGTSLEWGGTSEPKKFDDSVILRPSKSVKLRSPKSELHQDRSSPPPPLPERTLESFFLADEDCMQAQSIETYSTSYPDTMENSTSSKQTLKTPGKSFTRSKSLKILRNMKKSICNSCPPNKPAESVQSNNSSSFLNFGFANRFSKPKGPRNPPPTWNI

[2] = biological target: T2, Tyrosine-protein phosphatase non-receptor type 7 (Homo sapiens, UniProt P35236); assay type: functional
T2 sequence (P35236 whole entry): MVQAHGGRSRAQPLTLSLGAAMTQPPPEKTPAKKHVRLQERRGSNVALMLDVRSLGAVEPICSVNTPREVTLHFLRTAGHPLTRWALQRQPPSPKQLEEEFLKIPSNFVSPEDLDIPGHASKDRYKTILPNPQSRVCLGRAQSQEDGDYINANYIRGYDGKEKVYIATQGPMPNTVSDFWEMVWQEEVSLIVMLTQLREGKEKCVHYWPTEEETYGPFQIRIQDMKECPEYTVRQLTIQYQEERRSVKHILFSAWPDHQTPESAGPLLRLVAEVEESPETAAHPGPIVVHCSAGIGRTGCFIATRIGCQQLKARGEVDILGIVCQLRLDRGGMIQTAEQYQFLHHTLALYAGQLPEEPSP

[3] = biological target: T1, Tyrosine-protein phosphatase non-receptor type 22; assay type: functional; remark: listed apart in the source
[4] = biological target: T3, Corticotropin-releasing factor receptor 2/Corticotropin-releasing factor-binding protein (Homo sapiens, UniProt P24387+Q13324); experiment: activators of CRF receptor 2 with binding protein – uHTS hits, confirmation (AID 602473); assay type: functional; conditions: read-out: EC50_Mean
T3 sequence (Q13324 whole entry): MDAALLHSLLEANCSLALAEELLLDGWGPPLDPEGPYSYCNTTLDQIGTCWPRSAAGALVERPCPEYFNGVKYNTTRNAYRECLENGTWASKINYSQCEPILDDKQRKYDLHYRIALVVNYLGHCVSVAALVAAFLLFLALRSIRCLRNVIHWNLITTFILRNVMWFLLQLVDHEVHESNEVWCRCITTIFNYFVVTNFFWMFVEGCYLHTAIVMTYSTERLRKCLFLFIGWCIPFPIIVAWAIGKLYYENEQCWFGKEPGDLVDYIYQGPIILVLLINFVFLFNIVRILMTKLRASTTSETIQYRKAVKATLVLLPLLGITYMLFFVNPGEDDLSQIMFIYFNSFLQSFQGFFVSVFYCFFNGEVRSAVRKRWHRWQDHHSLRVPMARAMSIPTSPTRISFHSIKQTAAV
T3 sequence (P24387 whole entry): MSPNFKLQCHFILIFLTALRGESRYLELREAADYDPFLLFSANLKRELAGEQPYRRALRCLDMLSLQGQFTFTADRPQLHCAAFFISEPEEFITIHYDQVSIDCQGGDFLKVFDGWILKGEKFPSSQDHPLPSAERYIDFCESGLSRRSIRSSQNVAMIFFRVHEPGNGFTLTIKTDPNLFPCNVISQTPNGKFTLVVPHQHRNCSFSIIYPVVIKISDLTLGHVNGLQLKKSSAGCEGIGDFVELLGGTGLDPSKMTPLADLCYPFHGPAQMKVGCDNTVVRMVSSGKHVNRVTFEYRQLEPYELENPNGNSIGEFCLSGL

[5] = biological target: T3, Corticotropin-releasing factor receptor 2/Corticotropin-releasing factor-binding protein; experiment: Dose Response confirmation of uHTS hits for small molecule antagonists of the CRF-binding protein and CRF-R2 receptor complex.; assay type: functional; conditions: read-out: IC50_Mean
cells = assay type: functional
[6] = Vero E6 cell cytotoxicity, dose response, cytotoxicity control for non-replicating M. tuberculosis project, secondary assay (AID 492998); assay type: functional, VeroE6; conditions: Vero C1008
[7] = biological target: T4, Microphthalmia-associated transcription factor (Homo sapiens, UniProt O75030); experiment: TRPM1 promoter luciferase signal decrease, dose response, MITF inhibitor project, cell-based, SK-MEL-5, cherry-picked, set 3 (AID 493073); assay type: functional
T4 sequence (O75030 whole entry): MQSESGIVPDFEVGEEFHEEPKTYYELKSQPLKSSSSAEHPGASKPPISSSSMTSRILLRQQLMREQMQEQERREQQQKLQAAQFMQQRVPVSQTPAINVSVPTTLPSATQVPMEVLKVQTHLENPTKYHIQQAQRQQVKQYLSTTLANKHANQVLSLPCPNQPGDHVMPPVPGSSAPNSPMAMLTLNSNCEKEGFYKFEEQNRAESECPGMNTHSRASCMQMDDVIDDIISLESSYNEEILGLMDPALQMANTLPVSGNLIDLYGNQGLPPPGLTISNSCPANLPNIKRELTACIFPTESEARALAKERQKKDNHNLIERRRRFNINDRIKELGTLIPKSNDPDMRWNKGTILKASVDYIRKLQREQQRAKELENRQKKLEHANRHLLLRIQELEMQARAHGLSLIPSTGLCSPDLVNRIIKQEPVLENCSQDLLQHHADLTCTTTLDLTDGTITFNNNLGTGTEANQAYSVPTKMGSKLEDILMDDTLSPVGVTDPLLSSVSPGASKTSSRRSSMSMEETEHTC

[8] = THP-1 cell cytotoxicity, dose response, cytotoxicity control for non-replicating M. tuberculosis project (AID 489025); assay type: functional
[9] = biological target: T5, Heat shock factor protein 1 (Mus musculus, UniProt P38532); experiment: HSF1 potentiators in luciferase reporter cells, confirmation, cell-based, NIH3T3, luminescence, dose retest (AID 435004); assay type: functional;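 note: stress induced by proteasome inhibitor MG132 added 30 min after compound; luciferase reporter driven by HSF1 response element in NIH3T3 cells; actives raise luminescence as potentiators of the MG132 stress response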
T5 sequence (P38532 whole entry): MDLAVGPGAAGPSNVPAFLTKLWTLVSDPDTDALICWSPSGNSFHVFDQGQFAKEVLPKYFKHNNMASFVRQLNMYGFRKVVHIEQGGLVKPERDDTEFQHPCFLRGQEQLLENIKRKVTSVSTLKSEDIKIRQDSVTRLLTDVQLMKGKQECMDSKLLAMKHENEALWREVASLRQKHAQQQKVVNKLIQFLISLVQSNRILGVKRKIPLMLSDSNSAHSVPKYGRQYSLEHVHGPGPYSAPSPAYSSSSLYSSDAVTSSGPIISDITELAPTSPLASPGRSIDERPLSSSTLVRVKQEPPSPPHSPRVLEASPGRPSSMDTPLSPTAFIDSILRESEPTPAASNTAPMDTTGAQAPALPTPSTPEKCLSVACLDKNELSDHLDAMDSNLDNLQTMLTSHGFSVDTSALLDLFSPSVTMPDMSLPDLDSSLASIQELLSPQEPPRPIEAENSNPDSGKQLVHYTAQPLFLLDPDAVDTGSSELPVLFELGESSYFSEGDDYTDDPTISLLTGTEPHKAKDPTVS

[10] = biological target: T6, Ubiquitin-conjugating enzyme E2 N (Homo sapiens, UniProt P61088); assay type: functional
T6 sequence (P61088 whole entry): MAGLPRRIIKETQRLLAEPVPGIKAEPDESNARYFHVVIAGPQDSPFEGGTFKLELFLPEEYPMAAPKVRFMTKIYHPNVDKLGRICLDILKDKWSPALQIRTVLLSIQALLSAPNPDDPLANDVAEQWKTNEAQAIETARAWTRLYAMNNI

Bcl-2-related protein A1 = biological target: T7, Bcl-2-related protein A1 (Mus musculus, UniProt Q07440); assay type: functional;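 note: confirmatory dose–response counterscreen on Bfl-1, used to check hits from a UBC13 polyubiquitin inhibitor campaign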
T7 sequence (Q07440 whole entry): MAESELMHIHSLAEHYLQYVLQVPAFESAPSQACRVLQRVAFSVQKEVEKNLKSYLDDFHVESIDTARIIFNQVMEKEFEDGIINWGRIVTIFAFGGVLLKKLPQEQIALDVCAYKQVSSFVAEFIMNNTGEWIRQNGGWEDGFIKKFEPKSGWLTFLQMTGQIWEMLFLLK

[11] = biological target: T6, Ubiquitin-conjugating enzyme E2 N; assay type: functional; remark: listed apart in the source
[12] = biological target: Intestinal-type alkaline phosphatase (Mus musculus, UniProt P24822); experiment: PubChem AID 488785; assay type: functional
Intestinal-type alkaline phosphatase (Mus musculus, UniProt P24822), sequence (P24822 whole entry): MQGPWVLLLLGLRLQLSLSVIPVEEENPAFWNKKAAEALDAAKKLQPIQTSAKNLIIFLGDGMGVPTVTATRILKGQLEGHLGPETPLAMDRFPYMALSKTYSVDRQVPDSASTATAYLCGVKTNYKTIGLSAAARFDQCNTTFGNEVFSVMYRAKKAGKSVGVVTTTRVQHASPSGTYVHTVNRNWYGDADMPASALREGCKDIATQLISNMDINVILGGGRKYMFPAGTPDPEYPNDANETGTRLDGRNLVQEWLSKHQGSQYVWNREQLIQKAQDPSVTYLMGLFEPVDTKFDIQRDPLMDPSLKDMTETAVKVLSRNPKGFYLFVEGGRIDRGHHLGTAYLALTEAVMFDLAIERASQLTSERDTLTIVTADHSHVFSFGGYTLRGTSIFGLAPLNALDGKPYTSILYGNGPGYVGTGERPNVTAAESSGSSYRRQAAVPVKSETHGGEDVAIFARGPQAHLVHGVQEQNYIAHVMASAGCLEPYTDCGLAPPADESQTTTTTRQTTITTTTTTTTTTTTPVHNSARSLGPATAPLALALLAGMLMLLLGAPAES

[13] = biological target: Intestinal-type alkaline phosphatase (Homo sapiens, UniProt P09923); experiment: inhibition of human intestinal alkaline phosphatase – biochemical, dose response (AID 488876); assay type: functional
Intestinal-type alkaline phosphatase (Homo sapiens, UniProt P09923), sequence (P09923 whole entry): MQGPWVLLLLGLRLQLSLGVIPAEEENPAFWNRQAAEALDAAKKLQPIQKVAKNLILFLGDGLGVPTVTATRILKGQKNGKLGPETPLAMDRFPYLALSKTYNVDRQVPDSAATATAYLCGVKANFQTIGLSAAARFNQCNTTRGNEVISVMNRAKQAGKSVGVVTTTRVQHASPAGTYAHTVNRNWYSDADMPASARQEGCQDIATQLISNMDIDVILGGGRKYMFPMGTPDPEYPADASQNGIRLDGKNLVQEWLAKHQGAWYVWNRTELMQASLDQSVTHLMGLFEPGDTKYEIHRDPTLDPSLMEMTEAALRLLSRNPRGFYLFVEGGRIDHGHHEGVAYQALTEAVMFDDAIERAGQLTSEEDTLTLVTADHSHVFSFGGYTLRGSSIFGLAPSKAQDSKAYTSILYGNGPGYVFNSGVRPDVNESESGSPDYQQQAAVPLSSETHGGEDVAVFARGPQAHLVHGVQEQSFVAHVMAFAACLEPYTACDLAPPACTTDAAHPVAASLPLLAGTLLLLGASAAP

[14] = biological target: T8, Alkaline phosphatase, tissue-nonspecific isozyme (Homo sapiens, UniProt P05186); experiment: TNAP enzyme inhibition by screening hits, dose response, selectivity assay for mouse IAP inhibitor project, biochemical, human TNAP, uHTS hits (AID 488906); assay type: functional
T8 sequence (P05186 whole entry): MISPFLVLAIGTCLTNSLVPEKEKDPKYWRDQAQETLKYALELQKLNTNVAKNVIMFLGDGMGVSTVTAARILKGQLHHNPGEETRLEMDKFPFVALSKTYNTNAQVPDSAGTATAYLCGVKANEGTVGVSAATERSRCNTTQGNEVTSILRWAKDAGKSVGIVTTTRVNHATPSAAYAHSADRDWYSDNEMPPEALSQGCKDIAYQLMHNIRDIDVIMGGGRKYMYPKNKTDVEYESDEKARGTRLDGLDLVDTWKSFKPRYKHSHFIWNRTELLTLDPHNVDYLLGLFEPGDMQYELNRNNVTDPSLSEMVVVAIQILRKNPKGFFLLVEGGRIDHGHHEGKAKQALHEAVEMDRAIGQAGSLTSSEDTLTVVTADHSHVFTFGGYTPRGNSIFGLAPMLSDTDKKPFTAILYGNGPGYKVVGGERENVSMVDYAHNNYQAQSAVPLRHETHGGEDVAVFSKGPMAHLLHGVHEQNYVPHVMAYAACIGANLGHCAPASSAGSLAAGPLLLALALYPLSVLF

In the case of `CCOC(=O)NC(=O)C(=CNc1ccc(C)cc1)C(=O)NC(=O)OCC`, the IC50 [1] is reported as > 79.4 µM (inactive), the IC50 [2] is reported as > 79.4 µM (inactive) and the IC50 [3] is reported as > 79.4 µM (inactive).
For `CCOc1ccc(C(=O)Nc2ccc(Cl)cn2)cc1Cl`, the EC50 [4] was > 53 µM (inactive), the IC50 [1] was > 79.4 µM (inactive) and the IC50 [2] was > 79.4 µM (inactive). The IC50 [5] was > 47.1 µM (inactive) and the IC50 [3] was > 79.4 µM (inactive).
For `O=C(CNC(=O)c1cccc(F)c1)N/N=C/c1ccc([N+](=O)[O-])s1`, the IC50 (cells) was 30.7 µM (active), the CC50 [6] was > 20 µM (active) and the AC50 [7] was 7.45 µM (active). For the same compound, the CC50 [8] was 28 µM (active).
In the case of `Cc1ccc(-c2cc(C(F)F)nc(S(C)(=O)=O)n2)cc1`, the IC50 (cells) is reported as 7.88 µM (active), the EC50 [9] is reported as 13.1 µM (active) and the CC50 [6] is reported as > 20 µM (active). The CC50 [8] was 23.9 µM (active).
For `Cc1cc(NC(=O)Cn2c(=O)n(CCCCC(=O)NC3CCN(Cc4ccccc4)CC3)c(=O)c3ccccc32)[nH]n1`, the IC50 [10] was > 20 µM (inactive), the IC50 [1] was > 79.4 µM (inactive) and the IC50 [2] was > 79.4 µM (inactive). The IC50 [3] was > 79.4 µM (inactive).
With `Cc1ccc(CN2CCC(CNC(=O)c3ccc(NC(=O)C4=CSCCO4)cc3)CC2)cc1` the IC50 [10] was 19.4 µM (active), the IC50 (Bcl-2-related protein A1) was > 20 µM (inactive) and the IC50 [11] was > 20 µM (inactive).
For `Cc1cc(F)ccc1S(=O)(=O)Nc1ccc(O)c(Sc2nnc[nH]2)c1`, the IC50 [12] was 2.3 µM (active), the IC50 [13] was 2.12 µM (active) and the IC50 [14] was 5.44 µM (active).
For `O=[N+]([O-])c1cc(Br)cc(/C=N/n2cnnc2)c1O`, the IC50 [1] was > 79.4 µM (inactive), the IC50 [2] was > 79.4 µM (inactive) and the IC50 [3] was > 79.4 µM (inactive).
